O=c1ccc(-c2ccccc2)n[nH]1
solubility (mole fraction)
Details | 278.15 K | 283.15 K | 288.15 K | 293.15 K | 298.15 K | 303.15 K | 308.15 K | 313.15 K | 318.15 K
in ethanol | 0.00242 | 0.00289 | 0.00342 | 0.00402 | 0.00466 | 0.00547 | 0.00637 | 0.00736 | 0.00846
in ethylene glycol | 0.00304 | 0.00369 | 0.00445 | 0.00536 | 0.00646 | 0.0076 | 0.00905 | 0.0106 | 0.0124
in isopropanol | 0.00411 | 0.00489 | 0.00579 | 0.00684 | 0.00795 | 0.0094 | 0.0109 | 0.0126 | 0.0142
in methanol | 0.00124 | 0.00153 | 0.00183 | 0.0022 | 0.00265 | 0.00309 | 0.00365 | 0.00432 | 0.00502
in water | 2.53e-06 | 3.14e-06 | 3.86e-06 | 4.72e-06 | 5.84e-06 | 7.08e-06 | 8.51e-06 | 1.02e-05 | 1.22e-05
